Assay [1] has as its system Mus musculus. Description: Hepatoprotective activity in mouse model of D-GaIN/LPS-induced liver injury assessed as inhibition of sALT level secretion at 100 mg/kg, po relative to control. The assay is classed as functional.
In assay [2] the test system is Mus musculus. Nature of the assay: Hepatoprotective activity in mouse model of D-GaIN/LPS-induced liver injury assessed as inhibition of sAST secretion at 100 mg/kg, po relative to control. The assay is classed as functional.
Assay [3] relates to Hepatocyte. Description: Hepatoprotective activity against D-GaIN-induced toxicity in mouse hepatocyte relative to control. The assay is classed as functional, cell-based.
Assay [4] relates to Hepatocyte. Nature of the assay: Hepatoprotective activity against D-GaIN-induced toxicity in mouse hepatocytes.
The subject of assay [5] is Hepatocyte. Description: Hepatoprotective activity against D-GaIN/TNFalpha induced cell death in mouse hepatocytes assessed as cell survival rate at 200 uM relative to control. The assay is classed as functional.
Assay [6] concerns Hepatocyte. Description: Hepatoprotective activity against D-GaIN/TNFalpha induced cell death in mouse hepatocytes assessed as cell survival rate at 50 uM relative to control. The assay is classed as functional.
The subject of assay [7] is Hepatocyte. Nature of the assay: Hepatoprotective activity against D-GaIN/TNFalpha induced cell death in mouse hepatocytes assessed as cell survival rate at 100 uM relative to control. The assay is classed as functional.
The species named for assay [8] is Mus musculus. Description: Hepatoprotective activity in mouse liver homogenate assessed as inhibition of iron/ascorbate lipid peroxidation at 5.0 mg/mL relative to control. The assay is classed as functional. Also on record: scale not given: the % may be the effect or the level left.
Assay [9] relates to Hepatocyte. Nature of the assay: Hepatoprotective activity against CCL4-induced rat hepatocyte toxicity assessed as decrease in MDA level at 0.25 mg/ml (reference value: 9.22 nmol/mg). The assay is classed as functional.
The subject of assay [10] is Hepatocyte. Nature of the assay: Hepatoprotective activity against CCL4-induced rat hepatocyte toxicity assessed as decrease in ALT level at 0.25 mg/ml (reference value: 119.0 U/L). The assay is classed as functional.
Assay [11] relates to Hepatocyte. Description: Hepatoprotective activity against CCL4-induced rat hepatocyte toxicity assessed as increase in GSH level at 0.25 mg/ml (reference value: 3.7 mg/g). The assay is classed as functional.
In assay [12] the test system is Hepatocyte. Nature of the assay: Hepatoprotective activity against CCL4-induced rat hepatocyte toxicity assessed as decrease in AST level at 0.25 mg/ml (reference value: 243.5 U/L). The assay is classed as functional.
Assay [13] deals with Hepatocyte. Description: Hepatoprotective activity against CCL4-induced rat hepatocyte toxicity assessed as increase in SOD level at 0.25 mg/ml (reference value: 125.8 U/L). The assay is classed as functional.
Assay [14] is filed under the species Mus musculus. Nature of the assay: Hepatoprotective activity in CCl4-induced toxicity in liver injured mouse assessed as increase in inhibition of liver damage at 50 uM relative to control. The assay is classed as functional. Also on record: scale not given: the % may be the effect or the level left.
Assay [15] is filed under the species Mus musculus. Nature of the assay: Hepatoprotective activity in GaIN-induced toxicity in liver injured mouse assessed as increase in inhibition of liver damage at 50 uM relative to control. The assay is classed as functional. Also on record: scale not given: the % may be the effect or the level left.
Assay [16] is filed under the species Mus musculus. Nature of the assay: Hepatoprotective activity in mouse model of CCl4-induced liver injury assessed as reduction in AST level at 100 microg/ml (reference value: 5.9 U/mL). The assay is classed as functional. The settings on record: dose 100 µg/ml.
The species named for assay [17] is Mus musculus. Nature of the assay: Hepatoprotective activity in mouse model of CCl4-induced liver injury assessed as reduction in ALT level at 100 microg/ml (reference value: 40.2 U/mL). The assay is classed as functional. The settings on record: dose 100 µg/ml.
The subject of assay [18] is Rattus norvegicus. Description: Hepatoprotective activity in CCl4-induced rat model of liver injury assessed as reduction in ALT level at 4 mg/kg relative to control. The assay is classed as functional. Also on record: scale not given: the % may be the effect or the level left.
In assay [19] the test system is Rattus norvegicus. Description: Hepatoprotective activity in ethanol-induced rat model of liver injury assessed as reduction in AST level at 4 mg/kg relative to control. The assay is classed as functional. Also on record: scale not given: the % may be the effect or the level left.
In assay [20] the test system is Rattus norvegicus. Nature of the assay: Hepatoprotective activity in GaIN-induced rat model of liver injury assessed as reduction in ALT level at 4 mg/kg relative to control. The assay is classed as functional. Set-up: scale not given: the % may be the effect or the level left.
The species entered for assay [21] is Mus musculus. Description: Hepatoprotective activity in CCl4-induced toxicity in liver injured mouse assessed as increase in inhibition of liver damage relative to control. The assay is classed as functional. Also on record: concentration or dose not given beside the values.
Assay [22] has as its system Rattus norvegicus. Description: Hepatoprotective activity in ethanol-induced rat model of liver injury assessed as reduction in ALT level at 4 mg/kg relative to control. The assay is classed as functional. Set-up: scale not given: the % may be the effect or the level left.
The subject of the next assay is HepG2. Description: Cytoprotective activity against t-BHP induced cell death in human HepG2 cells assessed as cell survival rate at 5 uM relative to control. The assay is classed as functional.

Structures are written as SMILES. pIC50: −log10 of the molar value.

Usually inhibition in vivo stands for how much of the control response was suppressed. The term pIC50 denotes the negative decadic logarithm of the IC50, by convention in mol/L. Broadly, the IC50 is the concentration at which inhibition is half-maximal. As to `C[C@@H]1CC[C@]2(C(=O)O[C@@H]3O[C@H](CO)[C@@H](O)[C@H](O)[C@H]3O)CC[C@]3(C)C(=CC[C@@H]4[C@@]5(C)C[C@@H](O)C(=O)C(C)(C)[C@@H]5CC[C@]43C)[C@@H]2[C@]1(C)O`, the inhibition in vivo at 100 mg/kg in the assay with Mus musculus [1] was determined as 78.4%; in the assay with Mus musculus [2] it was 76.8%. Besides, the pIC50 in the assay on Hepatocyte [3] is 4.33. In addition, in the assay on Hepatocyte [4], the IC50 is 46.7 µM.
For `C=C(C)[C@@H]1CC[C@]2(C(=O)O)CC[C@]3(C)[C@H](CC[C@@H]4[C@@]5(C)CC[C@H](O)C(C)(C)[C@@H]5CC[C@]43C)[C@@H]12` [BETULINIC ACID], the Activity is 23% in the assay with Hepatocyte [5], 39.2% in the assay with Hepatocyte [6], 26.1% in the assay with Hepatocyte [7] and 52.7% in the assay filed under Mus musculus [8].
Consider `CC1(C)CC[C@]2(C(=O)O[C@@H]3O[C@H](CO[C@@H]4O[C@H](CO)[C@@H](O)[C@H](O)[C@H]4O)[C@@H](O)[C@H](O)[C@H]3O)CC[C@]3(C)C(=CC[C@@H]4[C@@]5(C)CCC(O[C@@H]6OC[C@H](O)[C@H](O)[C@H]6O)[C@@](C)(CO)[C@@H]5CC[C@]43C)[C@@H]2C1` (stereo partly drawn), for which the Activity was determined as 9.22 nmol/mg with Hepatocyte [9]; 82.1 U/L in the assay on Hepatocyte [10]; 5.3 mg/g in the assay on Hepatocyte [11]; 167.5 U/L in the assay with Hepatocyte [12]; 161.4 U/L with Hepatocyte [13].
Regarding `C[C@H]1[C@H](C)CC[C@]2(C(=O)O)CC[C@]3(C)C(=CC[C@@H]4[C@@]5(C)CC(=O)[C@H](O)[C@@](C)(CO)[C@@H]5CC[C@]43C)[C@H]12`, the Activity came out at 54.3% in the assay filed under Mus musculus [14] and 49% in the assay listed under Mus musculus [15].
For `C[C@H]1[C@H](C)CC[C@]2(C)CC[C@]3(C)C(=CC[C@@H]4[C@@]5(C)CC[C@H](O)C(C)(C)[C@@H]5CC[C@]43C)[C@H]12`, in the assay listed under Mus musculus [16], the Activity amounted to 40.22 U/ml.
`C=C1[C@H](O)C[C@]2(C)CC[C@]3(C)C(=C[C@@H](O)[C@@H]4[C@@]5(C)CC[C@H](OC(C)=O)C(C)(C)[C@@H]5CC[C@]43C)[C@@H]2[C@@H]1C`: in the assay filed under Mus musculus [17], the Activity stood at 15.7 U/ml.
Consider `COC(=O)[C@]12CC[C@@H](C)[C@H](C)[C@H]1C1=CC[C@@H]3[C@@]4(C)C[C@@H](OC)[C@H](OC(C)=O)[C@@](C)(COC(C)=O)[C@@H]4CC[C@@]3(C)[C@]1(C)CC2`, for which the Activity in the assay on Rattus norvegicus [18] stood at 33.3%.
For the molecule `C[C@H]1[C@H](C)CC[C@]2(C(=O)O)CC[C@]3(C)C(=CC[C@@H]4[C@@]5(C)C[C@@H](O)[C@H](O)[C@@](C)(CO)[C@@H]5CC[C@]43C)[C@H]12` [ASIATIC ACID], the Activity with Rattus norvegicus [19] was 25%; in the assay with Rattus norvegicus [20], 23.1%; in the assay filed under Mus musculus [21] it was 1%; in the assay on Rattus norvegicus [22], 20%.
Turning to `CC(C(=O)O)[C@H]1CC[C@@]2(C)[C@@H]3C(=O)C=C4[C@@H](CC[C@@H](O)C4(C)C)[C@]3(C)CC[C@]12C` (stereo partly drawn), in the assay with HepG2, the Activity amounted to 55.2%.

Values taken from ChEMBL document CHEMBL5260832, “Hepatoprotective natural triterpenoids” (Eur J Med Chem, 2018).
